Experimental data: ChEMBL document CHEMBL3044740, “Syntheses and evaluation of 2,5-disubstituted 4-thiazolidinone analogues as antimicrobial agents” (2012)
Calls of active or inactive are those of the source. No cut-off for these calls is given here.

Key:
Assay type in all cases: functional
Candida albicans [1] = experiment: Antifungal activity against Candida albicans MTCC 227 at 300 ug/ml by cup-plate method; settings: for zone of inhibition at 300 µg/mL: read-out: DIZ
Candida albicans [2] = experiment: Antifungal activity against Candida albicans MTCC 227 at 200 ug/ml by cup-plate method; settings: for zone of inhibition at 200 µg/mL: read-out: DIZ
Escherichia coli [3] = experiment: Antibacterial activity against Escherichia coli MTCC 739 at 300 ug/ml by cup-plate method; settings: read-out: DIZ
Candida albicans [4] = experiment: Antifungal activity against Candida albicans MTCC 227 at 100 ug/ml by cup-plate method; settings: for zone of inhibition at 100 µg/mL: read-out: DIZ
Escherichia coli [5] = experiment: Antibacterial activity against Escherichia coli MTCC 739 at 200 ug/ml by cup-plate method; settings: read-out: DIZ
Escherichia coli [6] = experiment: Antibacterial activity against Escherichia coli MTCC 739 at 100 ug/ml by cup-plate method; settings: read-out: DIZ
Pseudomonas aeruginosa [7] = experiment: Antibacterial activity against Pseudomonas aeruginosa MTCC 2453 at 300 ug/ml by cup-plate method; settings: read-out: DIZ
Pseudomonas aeruginosa [8] = experiment: Antibacterial activity against Pseudomonas aeruginosa MTCC 2453 at 200 ug/ml by cup-plate method; settings: read-out: DIZ
Pseudomonas aeruginosa [9] = experiment: Antibacterial activity against Pseudomonas aeruginosa MTCC 2453 at 100 ug/ml by cup-plate method; settings: read-out: DIZ
Bacillus subtilis [10] = experiment: Antibacterial activity against Bacillus subtilis MTCC 121 at 300 ug/ml by cup plate method; settings: read-out: DIZ
Bacillus subtilis [11] = experiment: Antibacterial activity against Bacillus subtilis MTCC 121 at 200 ug/ml by cup plate method; settings: read-out: DIZ
Bacillus subtilis [12] = experiment: Antibacterial activity against Bacillus subtilis MTCC 121 at 100 ug/ml by cup plate method; settings: read-out: DIZ
Staphylococcus aureus [13] = experiment: Antibacterial activity against Staphylococcus aureus MTCC 96 at 300 ug/ml by cup-plate method; settings: read-out: DIZ
Staphylococcus aureus [14] = experiment: Antibacterial activity against Staphylococcus aureus MTCC 96 at 200 ug/ml by cup-plate method; settings: read-out: DIZ
Staphylococcus aureus [15] = experiment: Antibacterial activity against Staphylococcus aureus MTCC 96 at 100 ug/ml by cup-plate method; settings: read-out: DIZ
Candida albicans [16] = experiment: Antifungal activity against Candida albicans MTCC 227 at 50 ug/ml by cup-plate method; settings: for zone of inhibition at 50 µg/mL: read-out: DIZ
Pseudomonas aeruginosa [17] = experiment: Antibacterial activity against Pseudomonas aeruginosa MTCC 2453 at 50 ug/ml by cup-plate method; settings: read-out: DIZ
Escherichia coli [18] = experiment: Antibacterial activity against Escherichia coli MTCC 739 at 50 ug/ml by cup-plate method; settings: read-out: DIZ
Bacillus subtilis [19] = experiment: Antibacterial activity against Bacillus subtilis MTCC 121 at 50 ug/ml by cup plate method; settings: read-out: DIZ
Staphylococcus aureus [20] = experiment: Antibacterial activity against Staphylococcus aureus MTCC 96 at 50 ug/ml by cup-plate method; settings: read-out: DIZ

What does the source list for `O=C1N/C(=N\c2ccc([N+](=O)[O-])cc2)S/C1=C\c1ccccc1[N+](=O)[O-]`?
diameter of the inhibition zone (DIZ) (Candida albicans [1]): inactive; diameter of the inhibition zone (DIZ) (Candida albicans [2]): inactive; zone of inhibition at 300 µg/mL (Escherichia coli [3]): 12 mm; diameter of the inhibition zone (DIZ) (Candida albicans [4]): inactive; zone of inhibition at 200 µg/mL (Escherichia coli [5]): 12 mm; zone of inhibition at 100 µg/mL (Escherichia coli [6]): 11 mm; zone of inhibition at 300 µg/mL (Pseudomonas aeruginosa [7]): 12 mm; zone of inhibition at 200 µg/mL (Pseudomonas aeruginosa [8]): 12 mm; zone of inhibition at 100 µg/mL (Pseudomonas aeruginosa [9]): 11 mm; zone of inhibition at 300 µg/mL (Bacillus subtilis [10]): 15 mm; zone of inhibition at 200 µg/mL (Bacillus subtilis [11]): 13 mm; zone of inhibition at 100 µg/mL (Bacillus subtilis [12]): 12 mm; zone of inhibition at 300 µg/mL (Staphylococcus aureus [13]): 17 mm; zone of inhibition at 200 µg/mL (Staphylococcus aureus [14]): 16 mm; zone of inhibition at 100 µg/mL (Staphylococcus aureus [15]): 15 mm; diameter of the inhibition zone (DIZ) (Candida albicans [16]): inactive; zone of inhibition at 50 µg/mL (Pseudomonas aeruginosa [17]): 10 mm; zone of inhibition at 50 µg/mL (Escherichia coli [18]): 11 mm; zone of inhibition at 50 µg/mL (Bacillus subtilis [19]): 11 mm; zone of inhibition at 50 µg/mL (Staphylococcus aureus [20]): 11 mm

For `O=C1N/C(=N\c2ccccc2[N+](=O)[O-])S/C1=C\c1ccccc1`, which zone of inhibition at 300 µg/mL (Candida albicans [1]) is on record?
Its zone of inhibition at 300 µg/mL is 18 mm.

And the zone of inhibition at 200 µg/mL (Candida albicans [2])?
The zone of inhibition at 200 µg/mL was 13 mm.

What about the zone of inhibition at 300 µg/mL (Escherichia coli [3]) of the same molecule?
The zone of inhibition at 300 µg/mL was 12 mm.

What about the zone of inhibition at 100 µg/mL (Candida albicans [4]) of the same molecule?
Its zone of inhibition at 100 µg/mL is 11 mm.

And the zone of inhibition at 200 µg/mL (Escherichia coli [5])?
Its zone of inhibition at 200 µg/mL is 10 mm.

And the zone of inhibition at 100 µg/mL (Escherichia coli [6])?
The zone of inhibition at 100 µg/mL was 8 mm.

And the zone of inhibition at 300 µg/mL (Pseudomonas aeruginosa [7])?
Its zone of inhibition at 300 µg/mL is 10 mm.

And the zone of inhibition at 200 µg/mL (Pseudomonas aeruginosa [8])?
Its zone of inhibition at 200 µg/mL is 8 mm.

And the zone of inhibition at 100 µg/mL (Pseudomonas aeruginosa [9])?
The zone of inhibition at 100 µg/mL was 6 mm.

What about the zone of inhibition at 300 µg/mL (Bacillus subtilis [10]) of the same molecule?
Its zone of inhibition at 300 µg/mL is 13 mm.

And the zone of inhibition at 200 µg/mL (Bacillus subtilis [11])?
Its zone of inhibition at 200 µg/mL is 11 mm.

And the zone of inhibition at 100 µg/mL (Bacillus subtilis [12])?
The zone of inhibition at 100 µg/mL was 10 mm.

What about the zone of inhibition at 300 µg/mL (Staphylococcus aureus [13]) of the same molecule?
Its zone of inhibition at 300 µg/mL is 15 mm.

And the zone of inhibition at 200 µg/mL (Staphylococcus aureus [14])?
The zone of inhibition at 200 µg/mL was 12 mm.

And the zone of inhibition at 100 µg/mL (Staphylococcus aureus [15])?
Its zone of inhibition at 100 µg/mL is 11 mm.

And the zone of inhibition at 50 µg/mL (Candida albicans [16])?
The zone of inhibition at 50 µg/mL was 10 mm.

What about the zone of inhibition at 50 µg/mL (Pseudomonas aeruginosa [17]) of the same molecule?
The zone of inhibition at 50 µg/mL was 6 mm.

And the zone of inhibition at 50 µg/mL (Escherichia coli [18])?
Its zone of inhibition at 50 µg/mL is 7 mm.

And the zone of inhibition at 50 µg/mL (Bacillus subtilis [19])?
The zone of inhibition at 50 µg/mL was 8 mm.

And the zone of inhibition at 50 µg/mL (Staphylococcus aureus [20])?
Its zone of inhibition at 50 µg/mL is 10 mm.

How did the “diameter of the inhibition zone (DIZ)” value (Candida albicans [1]) turn out when `O=C1N/C(=N\c2ccccc2[N+](=O)[O-])S/C1=C\c1ccc(Cl)cc1` was run?
Its value is “inactive”.

What about the “diameter of the inhibition zone (DIZ)” value (Candida albicans [2]) of the same molecule?
Its value is “inactive”.

And the zone of inhibition at 300 µg/mL (Escherichia coli [3])?
The zone of inhibition at 300 µg/mL was 11 mm.

What about the “diameter of the inhibition zone (DIZ)” value (Candida albicans [4]) of the same molecule?
Its value is “inactive”.

And the zone of inhibition at 200 µg/mL (Escherichia coli [5])?
The zone of inhibition at 200 µg/mL was 11 mm.

What about the zone of inhibition at 100 µg/mL (Escherichia coli [6]) of the same molecule?
The zone of inhibition at 100 µg/mL was 11 mm.

And the zone of inhibition at 300 µg/mL (Pseudomonas aeruginosa [7])?
The zone of inhibition at 300 µg/mL was 18 mm.

What about the zone of inhibition at 200 µg/mL (Pseudomonas aeruginosa [8]) of the same molecule?
The zone of inhibition at 200 µg/mL was 17 mm.

And the zone of inhibition at 100 µg/mL (Pseudomonas aeruginosa [9])?
The zone of inhibition at 100 µg/mL was 15 mm.

And the zone of inhibition at 300 µg/mL (Bacillus subtilis [10])?
The zone of inhibition at 300 µg/mL was 16 mm.

What about the zone of inhibition at 200 µg/mL (Bacillus subtilis [11]) of the same molecule?
Its zone of inhibition at 200 µg/mL is 15 mm.

What about the zone of inhibition at 100 µg/mL (Bacillus subtilis [12]) of the same molecule?
Its zone of inhibition at 100 µg/mL is 14 mm.

What about the zone of inhibition at 300 µg/mL (Staphylococcus aureus [13]) of the same molecule?
Its zone of inhibition at 300 µg/mL is 18 mm.

And the zone of inhibition at 200 µg/mL (Staphylococcus aureus [14])?
The zone of inhibition at 200 µg/mL was 16 mm.

And the zone of inhibition at 100 µg/mL (Staphylococcus aureus [15])?
Its zone of inhibition at 100 µg/mL is 15 mm.

And the “diameter of the inhibition zone (DIZ)” value (Candida albicans [16])?
Its value is “inactive”.

What about the zone of inhibition at 50 µg/mL (Pseudomonas aeruginosa [17]) of the same molecule?
Its zone of inhibition at 50 µg/mL is 14 mm.

And the zone of inhibition at 50 µg/mL (Escherichia coli [18])?
Its zone of inhibition at 50 µg/mL is 10 mm.

And the zone of inhibition at 50 µg/mL (Bacillus subtilis [19])?
Its zone of inhibition at 50 µg/mL is 13 mm.

And the zone of inhibition at 50 µg/mL (Staphylococcus aureus [20])?
The zone of inhibition at 50 µg/mL was 14 mm.

`O=C1N/C(=N\c2ccccc2[N+](=O)[O-])S/C1=C\c1cccc([N+](=O)[O-])c1` was tested. Which zone of inhibition at 300 µg/mL (Candida albicans [1]) did it give?
Its zone of inhibition at 300 µg/mL is 16 mm.

And the zone of inhibition at 200 µg/mL (Candida albicans [2])?
The zone of inhibition at 200 µg/mL was 14 mm.

And the zone of inhibition at 300 µg/mL (Escherichia coli [3])?
Its zone of inhibition at 300 µg/mL is 15 mm.

What about the zone of inhibition at 100 µg/mL (Candida albicans [4]) of the same molecule?
The zone of inhibition at 100 µg/mL was 12 mm.

And the zone of inhibition at 200 µg/mL (Escherichia coli [5])?
Its zone of inhibition at 200 µg/mL is 13 mm.

And the zone of inhibition at 100 µg/mL (Escherichia coli [6])?
The zone of inhibition at 100 µg/mL was 8 mm.

And the zone of inhibition at 300 µg/mL (Pseudomonas aeruginosa [7])?
Its zone of inhibition at 300 µg/mL is 16 mm.

And the zone of inhibition at 200 µg/mL (Pseudomonas aeruginosa [8])?
Its zone of inhibition at 200 µg/mL is 15 mm.

And the zone of inhibition at 100 µg/mL (Pseudomonas aeruginosa [9])?
The zone of inhibition at 100 µg/mL was 11 mm.

And the zone of inhibition at 300 µg/mL (Bacillus subtilis [10])?
Its zone of inhibition at 300 µg/mL is 22 mm.

What about the zone of inhibition at 200 µg/mL (Bacillus subtilis [11]) of the same molecule?
The zone of inhibition at 200 µg/mL was 20 mm.

And the zone of inhibition at 100 µg/mL (Bacillus subtilis [12])?
The zone of inhibition at 100 µg/mL was 15 mm.

What about the zone of inhibition at 300 µg/mL (Staphylococcus aureus [13]) of the same molecule?
Its zone of inhibition at 300 µg/mL is 16 mm.

What about the zone of inhibition at 200 µg/mL (Staphylococcus aureus [14]) of the same molecule?
Its zone of inhibition at 200 µg/mL is 14 mm.

What about the zone of inhibition at 100 µg/mL (Staphylococcus aureus [15]) of the same molecule?
Its zone of inhibition at 100 µg/mL is 10 mm.

What about the zone of inhibition at 50 µg/mL (Candida albicans [16]) of the same molecule?
Its zone of inhibition at 50 µg/mL is 10 mm.

And the zone of inhibition at 50 µg/mL (Pseudomonas aeruginosa [17])?
Its zone of inhibition at 50 µg/mL is 10 mm.

What about the zone of inhibition at 50 µg/mL (Escherichia coli [18]) of the same molecule?
The zone of inhibition at 50 µg/mL was 10 mm.

What about the zone of inhibition at 50 µg/mL (Bacillus subtilis [19]) of the same molecule?
The zone of inhibition at 50 µg/mL was 7 mm.

And the zone of inhibition at 50 µg/mL (Staphylococcus aureus [20])?
Its zone of inhibition at 50 µg/mL is 8 mm.
